# Tests used:
# mice = assay: NMDA-induced tactile hypersensitivity in mice; format: in vivo, mouse; conditions: result in words
# Description: Spinal drug injections were performed as follows. […] Briefly, a sterile 30-gauge ½ inch needle attached to a microsyringe was inserted between the L5 and L6 vertebrae. The mouse was held firmly by the pelvic girdle in one hand, while the syringe was held in the other hand at an angle of approximately 20° above the vertebral column. The needle was inserted into the tissue to one side of the L6 spinous process, into the groove between the spinous and transverse processes. The needle angle was decreased to about 10°, and the needle slowly advanced forward into the intervertebral space until a pop was felt and there was a visible serpentine tail movement. Compounds were slowly injected in the subarachnoid space in a volume of 5 μl. Each compound was tested at multiple doses. The minimal efficacious dose was used for all subsequent experiments.
# Sensitivity to light touch was quantified by scoring the response of mice to light stroking of their flanks with a small paintbrush, which is not normally painful. […] Statistical calculations of significance for in vivo studies were done using a two-tailed Students t-test.
# human α-2A receptor = target: T1, human α-2A receptor (Homo sapiens, UniProt P08913); conditions: percent efficacy relative to brimonidine
# T1 sequence (P08913 1-465): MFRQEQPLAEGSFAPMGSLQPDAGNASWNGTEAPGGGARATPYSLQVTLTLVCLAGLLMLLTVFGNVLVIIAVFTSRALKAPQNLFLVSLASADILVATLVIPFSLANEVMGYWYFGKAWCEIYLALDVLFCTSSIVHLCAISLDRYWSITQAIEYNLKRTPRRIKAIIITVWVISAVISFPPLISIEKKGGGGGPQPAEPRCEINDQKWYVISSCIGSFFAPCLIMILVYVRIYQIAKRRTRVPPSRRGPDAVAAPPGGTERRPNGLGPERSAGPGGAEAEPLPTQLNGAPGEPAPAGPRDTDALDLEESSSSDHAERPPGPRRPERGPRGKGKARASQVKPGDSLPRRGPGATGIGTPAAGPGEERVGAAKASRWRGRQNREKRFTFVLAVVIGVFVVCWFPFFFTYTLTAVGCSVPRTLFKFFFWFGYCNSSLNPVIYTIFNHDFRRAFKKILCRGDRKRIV
# Description: (§1) The human α-2A and α-2C receptor supernatants were added, in varying amounts, to naive PC12 cells, which were then incubated for 48 hours. The transduced cell populations were replated at a lower density and grown in media containing 100 ug/ml puromycin.
# (§2) Intracellular cAMP measurement was performed as follows. PC12 cells stably expressing the human α-2A or human α-2C adrenergic receptors were plated in 96-well poly-D-lysine coated plates at a density of 30,000 cells per well in 100 μl DMEM supplemented with 10% horse serum, 5% heat inactivated fetal bovine serum, 1% antibiotic-antimycotic and 100 μg/ml puromycin. Cells were grown overnight at 37° C. and 5% CO2. Cells were dosed by adding an equal volume of media containing IBMX (to a final concentration of 1 mM), forskolin (to a final concentration of 10 μM) and the appropriate drug dilution (to a final concentration of between 10^−5 M and 10^−12 M). After a 10 minute incubation, the media was aspirated and the cells lysed with 200 μl lysis buffer (Amersham Biosciences; Piscataway, N.J.). Plates were stored at −20° C. for up to 24 hours prior to assay. Intracellular cAMP was determined using the Biotrak cAMP enzyme immunoassay system (Amersham Biosciences) according to the manufacturer's instructions. Plates were read on a plate reader at 450 nm.
# human α-2C receptor = target: T2, human α-2C receptor (Homo sapiens, UniProt P18825); assay: Inhibition of forskolin-induced cAMP accumulation in PC12 cells expressing human α-2C receptor; format: cell-based; conditions: percent efficacy relative to brimonidine
# T2 construct: expressed in transfected cells; host or cells: PC12 cells (retroviral vector pCL BABE Puro)
# T2 sequence (P18825 1-462): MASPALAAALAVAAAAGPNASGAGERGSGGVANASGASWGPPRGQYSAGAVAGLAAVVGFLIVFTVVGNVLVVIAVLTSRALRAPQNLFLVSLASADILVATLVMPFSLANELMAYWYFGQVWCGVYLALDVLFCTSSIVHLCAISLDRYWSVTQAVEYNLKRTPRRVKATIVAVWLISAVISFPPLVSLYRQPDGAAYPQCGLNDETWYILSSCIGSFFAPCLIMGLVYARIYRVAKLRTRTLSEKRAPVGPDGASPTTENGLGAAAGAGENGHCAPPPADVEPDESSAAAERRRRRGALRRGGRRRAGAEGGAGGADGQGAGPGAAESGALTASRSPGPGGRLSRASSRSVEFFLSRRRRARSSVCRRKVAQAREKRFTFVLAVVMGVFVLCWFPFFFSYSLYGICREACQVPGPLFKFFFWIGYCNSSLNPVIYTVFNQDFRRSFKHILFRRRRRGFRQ
# Description: as §1, §2
# [1] = target: T3, bovine α-1A adrenergic receptor (Bos taurus, UniProt P18130); assay: Intracellular Ca+2 response in HEK293 cells expressing bovine α-1A receptor; format: cell-based; conditions: for bovine α1A % E: percent efficacy relative to phenylephrine; for agonist activity at the α-1A receptor: result in words
# T3 sequence (P18130 1-466): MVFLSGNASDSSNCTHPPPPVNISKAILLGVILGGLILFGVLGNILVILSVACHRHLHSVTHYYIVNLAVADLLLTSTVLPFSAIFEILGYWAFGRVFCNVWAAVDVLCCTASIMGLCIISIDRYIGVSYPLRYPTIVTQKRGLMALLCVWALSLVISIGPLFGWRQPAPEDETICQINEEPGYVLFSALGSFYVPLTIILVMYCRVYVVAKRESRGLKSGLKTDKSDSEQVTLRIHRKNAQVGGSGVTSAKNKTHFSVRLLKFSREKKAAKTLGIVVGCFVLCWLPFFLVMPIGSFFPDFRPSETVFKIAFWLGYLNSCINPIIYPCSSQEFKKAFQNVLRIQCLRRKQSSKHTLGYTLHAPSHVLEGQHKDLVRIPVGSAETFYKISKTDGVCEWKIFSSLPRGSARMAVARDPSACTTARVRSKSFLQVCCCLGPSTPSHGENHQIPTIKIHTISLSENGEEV
# Description: The bovine α-1A and hamster α-1B receptor supernatants were added, in varying amounts, to naive HEK293 cells, which were then incubated for 48 hours. The transduced cell populations were replated at a lower density and grown in media containing 0.25 ug/ml puromycin. […] Receptor density was measured in a prazosin radioligand binding assay.
# Intracellular Ca^+2 responses were measured as follows in HEK293 cells stably expressing either the bovine α-1A or hamster α-1B adrenergic receptor. Between 40,000 to 50,000 cells were plated per well in 96-well poly-D-lysine coated plates in 0.2 ml DMEM containing 10% heat-inactivated fetal calf serum, 1% antibiotic-antimycotic and 0.25 μg/ml puromycin one day prior to use. Cells were washed twice with HBSS supplemented with 10 mM HEPES, 2.0 mM CaCl2 and 2.5 mM probenicid, and subsequently incubated at 37° C. for 60 minutes with 4 μM Fluo-4 (Molecular Probes; Eugene, Oreg.). The extracellular dye was washed from the plates twice prior to placing the plates in the fluorometric imaging plate reader (FLIPR; Molecular Devices; Sunnyvale, Calif.). Ligands were diluted in HBSS and aliquoted into a 96-well microplate. Drugs were tested over the concentration range of 0.64 nM to 10,000 nM. Data for Ca^+2 responses were obtained in arbitrary fluorescence units.
SMILES,inhibition of NMDA-induced tactile hypersensitivity (mice; wildtype mice),inhibition of NMDA-induced tactile hypersensitivity (mice; α-2A knockout mice),inhibition of NMDA-induced tactile hypersensitivity (mice; α-2C knockout mice),human α2A % E (human α-2A receptor) [%],human α2C % E (human α-2C receptor) [%],bovine α1A % E [1] [%],agonist activity at the α-1A receptor [1]
"Brc1c(NC2=NCCN2)ccc2nccnc12 [Brimonidine, 5-bromo-6-(2-imidazolin-2-ylamino)quinoxaline]",complete inhibition of tactile hypersensitivity,neither clonidine nor brimonidine inhibited,complete inhibition of tactile hypersensitivity,91,93,15,weak activity
Clc1cccc(Cl)c1N=C1NCCN1 [Clonidine],complete inhibition of tactile hypersensitivity,neither clonidine nor brimonidine inhibited,complete inhibition of tactile hypersensitivity,94,84,62,partial agonists
